Laboratory results from ChEMBL document CHEMBL1201862, “PubChem BioAssay data set” (2004).
“And” between values parts separate entries of the source, which are not always exact repeats. Equal values may be shown once.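 Exposure lasted 48 hours, with cells grown in 96-well plates and compounds tested at five concentrations. GI50 = concentration required for 50% inhibition of growth.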 The source made the active and inactive calls. Rule as the data show it: active = GI50 up to about 1.1 µM and inactive = higher.

Key:
Experiment in all cases: DTP human tumour cell line panel, 48 h
LOX IMVI = system: LOX IMVI
LXFL 529 = system: LXFL 529
SK-MEL-5 = system: SK-MEL-5
CCRF-CEM = system: CCRF-CEM
NCI-H23 = system: NCI-H23
BT-549 = system: BT-549
NCI-H226 = system: NCI-H226
K562 = system: K562
UACC-257 = system: UACC-257
SNB-19 = system: SNB-19
HCT-116 = system: HCT-116
SF-539 = system: SF-539
OVCAR-8 = system: OVCAR-8
SK-OV-3 = system: SK-OV-3
OVCAR-4 = system: OVCAR-4
RPMI-8226 = system: RPMI-8226
RXF 393 = system: RXF 393
NCI-H460 = system: NCI-H460
HT-29 = system: HT-29
TK-10 = system: TK-10

Measured: GI50

O=S1(=O)NN=C(NCc2ccc(F)cc2)c2ccccc21
inactive: LOX IMVI 36.3 µM | LXFL 529 27.7 µM | SK-MEL-5 > 68.2 µM | CCRF-CEM 23.7 µM | NCI-H23 > 100 µM | BT-549 67.5 µM | NCI-H226 > 100 µM | K562 21 µM | UACC-257 69.2 µM | SNB-19 39.3 µM | HCT-116 > 100 µM | SF-539 > 85.5 µM | OVCAR-8 > 94.2 µM | SK-OV-3 50.6 µM | OVCAR-4 > 48 µM | RPMI-8226 > 40.7 µM | RXF 393 34.9 µM | NCI-H460 > 31.6 µM | HT-29 > 63.1 µM

CCOC(=O)N1Cc2ccoc2C1
inactive: LOX IMVI > 100 µM | LXFL 529 > 100 µM | SK-MEL-5 > 100 µM | CCRF-CEM > 100 µM | NCI-H23 > 100 µM | NCI-H226 > 100 µM | K562 > 100 µM | UACC-257 > 100 µM | SNB-19 > 100 µM | HCT-116 > 100 µM | SF-539 > 100 µM | OVCAR-8 > 100 µM | SK-OV-3 > 100 µM | OVCAR-4 > 100 µM | RPMI-8226 > 100 µM | RXF 393 > 100 µM | TK-10 > 100 µM | NCI-H460 > 100 µM | HT-29 > 100 µM

Cc1nc2c(nc1C)C(=O)C1=C(C2=O)C2C=CC1CC2
active: CCRF-CEM 1.1 µM
inactive: LOX IMVI 2.21 µM | LXFL 529 1.75 µM | SK-MEL-5 2.05 µM | NCI-H23 4.04 µM | NCI-H226 14.5 µM | K562 2.48 µM | UACC-257 4.31 µM | SNB-19 32.6 µM | HCT-116 1.54 µM | SF-539 13.8 µM | OVCAR-8 3.48 µM | SK-OV-3 40.3 µM | OVCAR-4 1.93 µM | RPMI-8226 2.17 µM | RXF 393 6.79 µM | TK-10 28.8 µM | NCI-H460 17.9 µM | HT-29 13.9 µM

c1ccc([P+](c2ccccc2)(c2ccccc2)C2Sc3ccccc3S2)cc1
inactive: LOX IMVI 11.4 µM | LXFL 529 12.6 µM | SK-MEL-5 17.7 µM | CCRF-CEM 13.8 µM | NCI-H23 10.5 µM | NCI-H226 12.5 µM | K562 16.9 µM | UACC-257 16.4 µM | SNB-19 27.7 µM | HCT-116 12.8 µM | SF-539 18.3 µM | OVCAR-8 15.1 µM | SK-OV-3 28.8 µM | OVCAR-4 18.9 µM | RPMI-8226 16.7 µM | RXF 393 14.9 µM | TK-10 21 µM | NCI-H460 23.3 µM | HT-29 23 µM

N#C/C(=C\c1ccc(O)cc1)C(N)=O
inactive: LOX IMVI > 100 µM | LXFL 529 > 100 µM | SK-MEL-5 > 100 µM | CCRF-CEM > 100 µM | NCI-H23 > 100 µM | NCI-H226 > 100 µM and 69.7 µM | K562 > 100 µM | UACC-257 > 100 µM | SNB-19 > 100 µM | HCT-116 > 100 µM | SF-539 > 100 µM | OVCAR-8 > 100 µM | SK-OV-3 > 100 µM | OVCAR-4 > 100 µM | RPMI-8226 > 100 µM | RXF 393 77.3 µM | TK-10 > 100 µM | NCI-H460 > 100 µM | HT-29 > 100 µM

O=[N+]([O-])c1ccccc1S(=O)(=O)c1ccccc1[N+](=O)[O-]
inactive: LOX IMVI > 100 µM | LXFL 529 > 100 µM | SK-MEL-5 > 56.2 µM | CCRF-CEM > 100 µM | NCI-H23 74.5 µM | BT-549 65.9 µM | NCI-H226 > 79.3 µM | K562 > 100 µM | UACC-257 > 100 µM | SNB-19 56.8 µM | HCT-116 > 100 µM | SF-539 54.8 µM | OVCAR-8 > 56.2 µM | SK-OV-3 > 90.8 µM | OVCAR-4 > 100 µM | RPMI-8226 > 92.7 µM | RXF 393 39.5 µM | TK-10 53.7 µM | NCI-H460 > 100 µM | HT-29 > 100 µM

Oc1cc(O)c2c(-c3c(O)c(-c4ccc(O)c(O)c4)[o+]c4cc(O)cc(O)c34)c(O)c(-c3ccc(O)c(O)c3)[o+]c2c1
inactive: LOX IMVI 32.4 µM | LXFL 529 55.5 µM | SK-MEL-5 > 100 µM | CCRF-CEM > 10 µM | NCI-H23 40.3 µM | NCI-H226 20.1 µM | K562 > 10 µM | UACC-257 > 100 µM | SNB-19 36 µM | HCT-116 48.8 µM | SF-539 25.6 µM | OVCAR-8 36.6 µM | SK-OV-3 34.1 µM | OVCAR-4 27.5 µM | RPMI-8226 63 µM | RXF 393 35.9 µM | TK-10 61.5 µM | NCI-H460 21.5 µM | HT-29 37.6 µM
